The values that follow come from article PMC6940896, “Development of a Highly Efficient Hybrid Peptide That Increases Immunomodulatory Activity Via the TLR4-Mediated Nuclear Factor-κB Signaling Pathway” (International Journal of Molecular Sciences, 2019).

The test system of one data set is peritoneal macrophages. Put plainly: Peritoneal macrophage phagocytosis (neutral red uptake) in CTX-immunosuppressed mice. It counts as in vivo, mouse. The settings on record: peritoneal macrophages of mice, OD 540 nm, CTX 80 mg/kg ip days 1-3, peptide 10 mg/kg ip days 4-10, control group 55.67%, n = 12.
Data set [1] in a line: Ex vivo stability in plasma. Format: in vitro ADME. Conditions: rat plasma, in vitro, 37 °C, HPLC, log-linear regression; mean ± SEM of three biological replicates; read-out: t1/2, half-life in plasma (converted). The method, then:
The samples were collected into pre-chilled tubes containing 1 mL of acidic acetone (hydrochloric acid/acetone/H2O, 1:40:5, by volume). Subsequently, the mixture was centrifuged at 2 × 10^4 rpm at 4 °C for 20 min. The precipitates were dried in vacuo. The dried precipitates were dissolved in 0.5 mL of 1 M acetic acid. The peptide analysis was carried out according to the protocol for the study of Tα1 using HPLC [51]. The half-lives of the target peptides were calculated by a logarithm-linear regression analysis of the peptide concentrations.

Data set [2] concerns the target T1, recombinant TLR4/MD2 complex (UniProt Q9QUK6 26-638; Q9JHF9 19-160).
T1 construct: Toll-like receptor 4 (TLR4) of the recombinant TLR4/MD2 complex; MD-2 (MD2, lymphocyte antigen 96) of the recombinant TLR4/MD2 complex; source: bought: R&D Systems
T1 sequence (looked up) 1: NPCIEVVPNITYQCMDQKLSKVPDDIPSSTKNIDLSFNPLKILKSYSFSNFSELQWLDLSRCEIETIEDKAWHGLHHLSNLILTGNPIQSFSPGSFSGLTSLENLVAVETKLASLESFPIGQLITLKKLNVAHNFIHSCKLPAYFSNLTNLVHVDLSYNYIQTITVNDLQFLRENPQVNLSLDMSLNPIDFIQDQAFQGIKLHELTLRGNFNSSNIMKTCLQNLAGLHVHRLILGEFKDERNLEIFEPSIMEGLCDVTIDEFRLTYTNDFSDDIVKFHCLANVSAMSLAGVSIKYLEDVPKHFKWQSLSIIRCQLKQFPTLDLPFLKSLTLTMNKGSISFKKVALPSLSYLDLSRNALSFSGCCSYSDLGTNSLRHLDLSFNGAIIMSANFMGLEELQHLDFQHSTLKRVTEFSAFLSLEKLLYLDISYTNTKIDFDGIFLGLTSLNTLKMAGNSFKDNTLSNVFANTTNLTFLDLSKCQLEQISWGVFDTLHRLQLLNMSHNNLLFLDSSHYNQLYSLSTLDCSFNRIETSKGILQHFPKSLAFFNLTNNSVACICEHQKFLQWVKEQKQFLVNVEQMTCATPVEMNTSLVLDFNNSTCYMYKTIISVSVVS
T1 sequence (looked up) 2: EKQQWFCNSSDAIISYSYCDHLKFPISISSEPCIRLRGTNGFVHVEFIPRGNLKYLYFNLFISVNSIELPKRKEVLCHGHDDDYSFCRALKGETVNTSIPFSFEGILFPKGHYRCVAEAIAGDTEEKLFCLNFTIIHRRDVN
Put plainly: SPR; TLR4/MD2 immobilised by amino coupling on a ProteOn GLH chip (ProteOn XPR36); LTAa passed over at 0, 1.25, 2.5, 5 and 10 μM (methods print mM); 25 °C; PBS with 0.1% Tween 20 and 2% DMSO; 30 μL/min; global fit, homogeneous 1:1 model. The settings on record: both partners purified.

Method for peritoneal macrophages: For the first 3 days, CTX (80 mg/kg mouse weight) was administered intraperitoneally once daily to establish the immunosuppressed animal model. From days 4 to 10 (7 days), peptides (10 mg/kg mouse weight) were administered intraperitoneally each day. The CTX group was only treated with CTX, and the control group was given sterile saline. The dose volume was 200 μL. Twenty-four hours after the last dose, the mice were killed and their tissues and blood collected for analysis.
Peritoneal macrophages were aseptically obtained from the different groups of mice by peritoneal lavage with 5 mL ice-cold phosphate-buffered saline (PBS). The peritoneal macrophages were further isolated by incubating peritoneal exudate cells at 37 °C in a moist atmosphere (5% CO2, 95% air) for 3 h to allow the cells to adhere. The adherent cells were washed twice and collected as peritoneal macrophages.
The phagocytic capacity of the peritoneal macrophages was measured by the neutral red uptake method [52]. […] The OD was measured using a microplate reader at 540 nm. The phagocytic rate was calculated in the following way:(4) hagocytic rate (%)=OD540(sample)/OD540(control) ×100% where OD540 (sample) is the absorbance at 540 nm by peptide-treated cells and OD540 (control) is the absorbance at 540 nm by the cells without peptides treated.

Consider `O=P1(N(CCCl)CCCl)NCCCO1` (stereo not drawn) [CTX, cyclophosphamide, reference compound], for which the macrophage phagocytic rate in the data set on peritoneal macrophages was 31.93%. With `CC[C@H](C)[C@H](NC(=O)[C@H](CCCCN)NC(=O)[C@H](CCC(=O)O)NC(=O)[C@H](CCCCN)NC(=O)[C@H](CO)NC(=O)[C@H](CCCCN)NC(=O)[C@H](CCCNC(=N)N)NC(=O)[C@H](Cc1ccccc1)NC(=O)[C@H](Cc1ccccc1)NC(=O)[C@H](CC(=O)O)NC(=O)CNC(=O)[C@H](CC(C)C)NC(=O)[C@@H](N)CC(C)C)C(=O)NCC(=O)N[C@@H](CCCCN)C(=O)N[C@@H](CCC(=O)O)C(=O)N[C@@H](Cc1ccccc1)C(=O)N[C@@H](CCCCN)C(=O)N[C@@H](CCCNC(=N)N)C(=O)N[C@H](C(=O)N[C@H](C(=O)N[C@@H](CCC(N)=O)C(=O)N[C@@H](CCCNC(=N)N)C(=O)N[C@H](C(=O)N[C@@H](CCCCN)C(=O)N[C@@H](CC(=O)O)C(=O)N[C@@H](Cc1ccccc1)C(=O)N[C@@H](CC(C)C)C(=O)N[C@@H](CCCNC(=N)N)C(=O)N[C@@H](CC(N)=O)C(=O)N[C@@H](CC(C)C)C(=O)N[C@H](C(=O)N1CCC[C@H]1C(=O)N[C@@H](CCCNC(=N)N)C(=O)N[C@H](C(=O)N[C@@H](CCC(=O)O)C(=O)N[C@@H](CO)C(=O)O)[C@@H](C)O)C(C)C)[C@@H](C)CC)C(C)C)[C@@H](C)CC` [LL-37], the half-life in data set [1] is 3.1 ± 0.87 h.

B1: LL-37-Tα1a hybrid peptide (LTAa) (peptide)
peptide: IGKEFKRIVQRIKDFLRNLVPRTEKEKKEVVE
notes: LL-37, human cationic host-defense peptide, residues 13-36; Thymosin alpha-1 (Tα1), residues 17-24 (Tα1a); (32 residues); source: synthetic peptide (solid-phase, KangLong Biochemistry; purity >95%)
For B1, the Kd in data set [2] was 0.0491 nM.
